pIC50: −log10 of the molar value. Values belong to the molecule of their own block, whether it stands above or below them.
Tests used:
NCI-H460 = assay: Antiproliferative activity against human NCI-H460 cells; format: functional, cell-based
MKN-45 = assay: Antiproliferative activity against human MKN45 cells; format: functional, cell-based
UO-31 = assay: Antiproliferative activity against human UO31 cells; format: functional, cell-based
MCF7 = assay: Antiproliferative activity against human MCF7 cells; format: functional, cell-based
MX1 = assay: Antiproliferative activity against human MX1 cells; format: functional, cell-based
[1] = target: T1, Serine/threonine-protein kinase B-raf (Homo sapiens, UniProt P15056); assay: Inhibition of BRAF (unknown origin)
A-375 [2] = assay: Antiproliferative activity against human A375 cells; format: functional, cell-based
HCT-116 = assay: Antiproliferative activity against human HCT116 cells; format: functional, cell-based
[3] = target: T2, Serine/threonine-protein kinase B-raf (Homo sapiens, UniProt P15056, V600E); assay: Inhibition of BRAF V600E mutant (unknown origin)
[4] = target: T3, RAF proto-oncogene serine/threonine-protein kinase (Homo sapiens, UniProt P04049); assay: Inhibition of CRAF (unknown origin)
[5] = target: T4, Serine/threonine-protein kinase A-Raf (Homo sapiens, UniProt P10398); assay: Inhibition of ARAF (unknown origin)
T4 sequence (P10398 whole entry): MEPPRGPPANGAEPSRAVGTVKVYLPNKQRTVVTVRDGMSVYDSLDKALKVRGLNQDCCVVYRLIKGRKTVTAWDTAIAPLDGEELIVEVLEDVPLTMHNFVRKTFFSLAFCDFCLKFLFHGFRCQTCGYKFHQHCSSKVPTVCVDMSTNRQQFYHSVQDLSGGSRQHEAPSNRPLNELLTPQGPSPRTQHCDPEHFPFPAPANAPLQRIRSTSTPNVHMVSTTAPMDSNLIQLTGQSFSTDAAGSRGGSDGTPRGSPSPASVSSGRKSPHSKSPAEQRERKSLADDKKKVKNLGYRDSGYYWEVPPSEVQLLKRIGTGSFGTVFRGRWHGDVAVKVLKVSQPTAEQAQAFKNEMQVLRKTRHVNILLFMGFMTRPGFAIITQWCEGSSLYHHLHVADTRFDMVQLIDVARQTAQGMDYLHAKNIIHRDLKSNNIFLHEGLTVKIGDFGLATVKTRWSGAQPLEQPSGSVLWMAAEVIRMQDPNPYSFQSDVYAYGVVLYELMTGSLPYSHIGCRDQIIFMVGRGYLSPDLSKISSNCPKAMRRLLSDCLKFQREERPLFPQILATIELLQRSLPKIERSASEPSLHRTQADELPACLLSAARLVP

[6] = target: T4, Serine/threonine-protein kinase A-Raf; assay: Inhibition of ARAF (unknown origin) after 20 mins in presence of 33P-gamma-ATP by hotspot kinase
SK-MEL-2 = assay: Antiproliferative activity against human SK-MEL-2 cells after 72 hrs by CTG solution based luminescence assay; format: functional, cell-based; settings: SK-MEL-2, 72 h
[7] = target: T1, Serine/threonine-protein kinase B-raf; assay: Inhibition of BRAF (unknown origin) using full length His6-tagged MEK1 as substrate after 20 mins in presence of 33P-gamma-ATP by hotspot kinase assay
[8] = target: T2, Serine/threonine-protein kinase B-raf; assay: Inhibition of […] BRAF V600E mutant (AA416 to 766 residues (unknown origin) using full length His6-tagged MEK1 as substrate after 20 mins in presence of 33P-gamma-ATP by hotspot kinase assay
COLO 205 = assay: Antiproliferative activity against human COLO205 cells after 72 hrs by CTG solution based luminescence assay; format: functional, cell-based; settings: COLO 205, 72 h
[9] = target: T3, RAF proto-oncogene serine/threonine-protein kinase; assay: Inhibition of CRAF (unknown origin) after 20 mins in presence of 33P-gamma-ATP by hotspot kinase assay
A-375 [10] = assay: Antiproliferative activity against human A375 cells after 72 hrs by CTG solution based luminescence assay; format: functional, cell-based; settings: A-375, 72 h
HT-29 = assay: Antiproliferative activity against human HT-29 cells; format: functional, cell-based
HepG2 = assay: Antiproliferative activity against human HepG2 cells; format: functional, cell-based
KETR3 = assay: Antiproliferative activity against human Ketr3 cells; format: functional, cell-based

T1 sequence (P15056 whole entry): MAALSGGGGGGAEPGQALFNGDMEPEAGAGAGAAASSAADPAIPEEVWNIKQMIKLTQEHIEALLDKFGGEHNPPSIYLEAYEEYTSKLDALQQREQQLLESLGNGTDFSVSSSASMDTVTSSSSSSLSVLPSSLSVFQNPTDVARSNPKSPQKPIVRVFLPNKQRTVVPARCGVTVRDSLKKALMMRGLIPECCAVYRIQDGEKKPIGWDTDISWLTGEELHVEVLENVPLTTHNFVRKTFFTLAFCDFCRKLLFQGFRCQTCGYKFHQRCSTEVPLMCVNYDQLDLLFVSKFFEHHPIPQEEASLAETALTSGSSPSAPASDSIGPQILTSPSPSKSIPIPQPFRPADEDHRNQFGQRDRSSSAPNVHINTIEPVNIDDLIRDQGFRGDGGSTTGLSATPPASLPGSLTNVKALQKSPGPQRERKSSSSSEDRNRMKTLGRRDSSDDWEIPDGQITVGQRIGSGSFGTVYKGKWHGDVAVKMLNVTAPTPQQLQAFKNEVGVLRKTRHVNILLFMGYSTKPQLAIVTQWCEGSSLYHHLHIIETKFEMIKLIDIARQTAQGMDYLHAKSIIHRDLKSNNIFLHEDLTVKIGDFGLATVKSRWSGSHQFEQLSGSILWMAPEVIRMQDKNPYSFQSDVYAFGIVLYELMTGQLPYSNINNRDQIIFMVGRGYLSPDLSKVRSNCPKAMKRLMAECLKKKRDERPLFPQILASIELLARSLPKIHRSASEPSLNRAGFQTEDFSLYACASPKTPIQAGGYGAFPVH
T2 sequence (P15056 2-766 V600E limits assumed): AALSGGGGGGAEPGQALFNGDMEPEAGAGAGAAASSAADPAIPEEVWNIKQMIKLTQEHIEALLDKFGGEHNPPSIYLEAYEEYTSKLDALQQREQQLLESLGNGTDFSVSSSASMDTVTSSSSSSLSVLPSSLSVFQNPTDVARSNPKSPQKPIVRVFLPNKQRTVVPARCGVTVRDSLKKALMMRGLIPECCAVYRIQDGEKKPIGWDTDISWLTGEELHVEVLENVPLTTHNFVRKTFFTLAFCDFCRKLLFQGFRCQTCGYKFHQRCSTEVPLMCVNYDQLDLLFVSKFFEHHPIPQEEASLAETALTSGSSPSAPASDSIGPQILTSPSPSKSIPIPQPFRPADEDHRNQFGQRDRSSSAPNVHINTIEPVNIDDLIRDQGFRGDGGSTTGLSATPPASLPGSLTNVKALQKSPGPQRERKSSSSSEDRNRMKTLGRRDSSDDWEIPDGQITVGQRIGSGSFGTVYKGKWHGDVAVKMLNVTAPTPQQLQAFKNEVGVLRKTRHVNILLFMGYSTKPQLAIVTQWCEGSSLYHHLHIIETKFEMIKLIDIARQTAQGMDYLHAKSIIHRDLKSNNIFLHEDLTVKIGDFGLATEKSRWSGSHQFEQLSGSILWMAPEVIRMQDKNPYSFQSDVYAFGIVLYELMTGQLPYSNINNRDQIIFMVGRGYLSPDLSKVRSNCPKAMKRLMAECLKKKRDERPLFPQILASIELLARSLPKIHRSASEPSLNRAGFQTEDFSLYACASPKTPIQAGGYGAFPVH
T3 sequence (P04049 whole entry): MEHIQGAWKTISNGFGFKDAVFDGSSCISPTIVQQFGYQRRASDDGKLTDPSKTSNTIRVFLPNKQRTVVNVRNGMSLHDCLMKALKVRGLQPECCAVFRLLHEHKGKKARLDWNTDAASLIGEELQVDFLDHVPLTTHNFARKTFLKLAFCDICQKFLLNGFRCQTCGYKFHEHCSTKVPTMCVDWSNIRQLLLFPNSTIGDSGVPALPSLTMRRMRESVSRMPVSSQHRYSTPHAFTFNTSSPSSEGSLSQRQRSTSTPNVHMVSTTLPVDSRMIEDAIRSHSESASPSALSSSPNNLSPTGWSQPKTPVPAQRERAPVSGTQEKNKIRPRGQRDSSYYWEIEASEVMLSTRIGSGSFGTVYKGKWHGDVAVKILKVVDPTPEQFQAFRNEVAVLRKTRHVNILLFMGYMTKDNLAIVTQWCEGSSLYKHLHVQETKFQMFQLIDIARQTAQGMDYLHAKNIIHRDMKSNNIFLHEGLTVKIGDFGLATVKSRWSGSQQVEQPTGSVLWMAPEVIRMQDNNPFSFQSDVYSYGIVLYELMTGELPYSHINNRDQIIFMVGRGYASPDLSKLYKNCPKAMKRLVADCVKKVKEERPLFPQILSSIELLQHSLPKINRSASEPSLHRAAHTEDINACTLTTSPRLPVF

Structure (SMILES): CN(C)CCn1cnnc1-c1cc(Oc2ccc(NC(=O)N/N=C/c3cccc(Cl)c3Cl)cc2F)ccn1
pIC50 (NCI-H460): 7.15
pIC50 (MKN-45): 7.30

Structure (SMILES): CC(NC(=O)c1ccc(-c2ccc(NC(=O)Nc3ccc(C(F)(F)F)c(Cl)c3)cc2)cc1)c1ccccc1 (stereo unspecified)
pIC50 (MX1): 5.33

Structure (SMILES): CNC(=O)c1cc(Cn2ccc3cc(NC(=O)Nc4ccc(Cl)c(C(F)(F)F)c4)ccc32)ccn1
pIC50 [1]: 6.29

Structure (SMILES): CNc1cc2c(cn1)cc(-c1ccc(F)c(NC(=O)Nc3cc(C(C)(C)C)no3)c1)c(=O)n2C1CCOC1 (stereo unspecified)
pIC50 (A-375 [2]): 8.22
pIC50 (HCT-116): 7.49
pIC50 [3]: 6.00

Structure (SMILES): Cc1ccc(C(=O)Nc2ccc(C(F)(F)F)c(Cl)c2)cc1NC(=O)C1(c2cc(NCCCN3CCN(C)CC3)ncn2)CC1
pIC50 [1]: 7.53
pIC50 [4]: 7.88
pIC50 [5]: 7.60
pIC50 [3]: 7.91 to 8.85

Structure (SMILES): CNC(=O)c1cc(Cn2cc(F)c3cc(NC(=O)Nc4ccc(Cl)c(C(F)(F)F)c4)ccc32)ccn1
pIC50 [1]: 5.87

Structure (SMILES): Cc1ccc(C(=O)Nc2ccc(C(F)(F)F)c(Cl)c2)cc1NC(=O)C1(c2ccnc(NCCN3CCN(C)CC3)n2)CC1
pIC50 [6]: 7.52
pIC50 (SK-MEL-2): > 6.40
pIC50 [3]: 7.90
pIC50 [7]: 7.71
pIC50 [8]: 7.90
pIC50 (COLO 205): 5.72
pIC50 [9]: 7.76
pIC50 (A-375 [10]): 5.97

Structure (SMILES): COc1cc2c(cnc3[nH]nc(C4CC4)c32)cc1-c1c(F)ccc(NS(=O)(=O)CCCF)c1F
pIC50 (A-375 [2]): 7.89
pIC50 [3]: 8.15

Structure (SMILES): CC(NC(=O)c1cccc(-c2ccc(NC(=O)Nc3ccc(C(F)(F)F)c(Cl)c3)cc2)c1)c1ccccc1 (stereo unspecified)
pIC50 (A-375 [2]): 5.29
pIC50 (HT-29): 5.19 to 5.29
pIC50 (HepG2): 5.19 to 5.29
pIC50 (MX1): 5.19 to 5.29
pIC50 (KETR3): 5.19 to 5.29

Structure (SMILES): CNC(=O)c1cc(Oc2ccc(NC(=O)Nc3ccc(Cl)c(C(F)(F)F)c3)cc2)ccn1 [SORAFENIB]
pIC50 (A-375 [2]): 4.73 to 5.08
pIC50 (HT-29): 4.73 to 5.44
pIC50 (HepG2): 4.73 to 5.08
pIC50 (MX1): 4.73 to 5.08
pIC50 (KETR3): 4.73 to 5.08

Now from value to molecule, other results behind:

pIC50 (MCF7): 5.70
Structure (SMILES): COc1ccc(C(=O)NCCNc2nccc(-c3c(-c4ccc(F)cc4)nc4sccn34)n2)cc1
pIC50 (UO-31): 5.85

pIC50 [4]: 7.40
pIC50 [3]: 7.72
Structure (SMILES): O=S(=O)(NCCNc1nccc(-c2c(-c3ccc(F)cc3)nc3sccn23)n1)c1ccc(O)cc1

pIC50 (MCF7): 5.84
Structure (SMILES): O=C(NCCNc1nccc(-c2c(-c3ccc(F)cc3)nc3sccn23)n1)c1ccccc1
pIC50 (UO-31): 5.76

pIC50 (MCF7): 5.43
Structure (SMILES): O=C(NCCNc1nccc(-c2c(-c3ccc(F)cc3)nc3sccn23)n1)Nc1ccccc1
pIC50 (UO-31): 5.53

pIC50 [3]: 7.64
Structure (SMILES): O=S(=O)(c1ccc(F)cc1)N1CCCC(Nc2nccc(-c3c(-c4ccc(F)cc4)nc4sccn34)n2)C1 (stereo unspecified)
